Measured values as given in ChEMBL document CHEMBL3132826, “Investigation of a tetrahydroisoquinoline scaffold as dual-action steroid sulfatase inhibitors generated by parallel solid-phase synthesis” (Medchemcomm, 2013).

Key:
[1] = test system: MCF7; test: Estrogenic activity in human MCF7 cells assessed as cell proliferation at 0.01 uM by MTS assay relative to basal level; type: ADME, cell-based; settings: mcf7, 0.01 µM
[2] = Estrogenic activity in human Saos2 cells assessed as cell proliferation at 1 uM; type: ADME, cell-based; settings: saos-2, 1 µM
[3] = test system: MCF7; test: Estrogenic activity in human MCF7 cells assessed as cell proliferation at 0.1 uM by MTS assay relative to basal level; type: ADME, cell-based; settings: mcf7, 0.1 µM
[4] = Estrogenic activity in human Saos2 cells assessed as increase in alkaline phosphatase activity at 1 nM; type: ADME, cell-based; settings: saos-2, 0.001 µM
[5] = test system: MCF7; test: Estrogenic activity in human MCF7 cells assessed as cell proliferation at 1 uM by MTS assay relative to basal level; type: ADME, cell-based; settings: mcf7, 1 µM
[6] = biological target: T1, Steryl-sulfatase (Homo sapiens) (UniProt P08842); test: Inhibition of STS (unknown origin) expressed in HEK-293 cells assessed as transformation of [3H]-E1S into E1 at 1 uM by […]; type: cell-based; settings: HEK293
T1 sequence (whole entry): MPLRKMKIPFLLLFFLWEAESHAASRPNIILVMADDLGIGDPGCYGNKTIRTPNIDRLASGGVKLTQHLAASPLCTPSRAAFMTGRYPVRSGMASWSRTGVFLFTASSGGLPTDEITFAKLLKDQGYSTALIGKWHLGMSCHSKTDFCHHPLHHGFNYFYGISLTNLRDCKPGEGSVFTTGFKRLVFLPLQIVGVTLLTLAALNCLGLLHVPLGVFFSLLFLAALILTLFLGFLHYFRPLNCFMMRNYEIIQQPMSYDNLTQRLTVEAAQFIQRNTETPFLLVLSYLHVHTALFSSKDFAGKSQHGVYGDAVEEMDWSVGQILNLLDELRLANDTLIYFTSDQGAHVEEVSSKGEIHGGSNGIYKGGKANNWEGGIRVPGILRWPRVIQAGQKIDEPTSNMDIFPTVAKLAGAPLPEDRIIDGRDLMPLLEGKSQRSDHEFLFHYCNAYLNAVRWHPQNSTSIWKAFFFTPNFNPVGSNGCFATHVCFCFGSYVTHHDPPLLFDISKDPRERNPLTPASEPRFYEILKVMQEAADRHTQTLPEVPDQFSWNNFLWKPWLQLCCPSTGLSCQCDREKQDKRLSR

[7] = biological target: T1, Steryl-sulfatase (Homo sapiens); test: Inhibition of STS (unknown origin) expressed in HEK-293 cells assessed as transformation of [3H]-E1S into E1 at 0.1 uM by […]; type: cell-based; settings: HEK293
[8] = Lipophilicity, log P of the compound; type: physicochemical; settings: octanol/water
[9] = test system: MCF7; test: Estrogenic activity in human MCF7 cells assessed as cell proliferation at 0.1 nM by MTS assay relative to basal level; type: ADME, cell-based; settings: mcf7, 0.0001 µM

| Structure (SMILES) | Activity [1] | Activity [2] | Activity [3] | Activity [4] | Activity [5] | inhibition [6] | inhibition [7] | logP [8] | Activity [9] |
| --- | --- | --- | --- | --- | --- | --- | --- | --- | --- |
| CCN(Cc1cccnc1)c1ccc(C(=O)N2CCc3ccc(O)cc3C2)cc1 | 0% | Toxic | 2% | 133% | 0% |  |  |  |  |
| CCN(Cc1ccccc1)c1ccc(C(=O)N2CCc3ccc(OS(N)(=O)=O)cc3C2)cc1 |  |  |  |  |  | 83.6% | 66.9% | 3.08 |  |
| NS(=O)(=O)Oc1ccc2c(c1)CN(C(=O)c1ccc(N3CCC(Cc4ccccc4)CC3)cc1)CC2 |  |  |  |  |  | 81.3% | 41.4% | 3.87 |  |
| CC(C)CCN(CCC(C)C)c1ccc(C(=O)N2CCc3ccc(O)cc3C2)cc1 | 0% | Toxic | 0% | 133% | 0% |  |  |  |  |
| O=C(c1ccc(N2CCc3ccccc3C2)cc1)N1CCc2ccc(O)cc2C1 | 0% | Toxic | 1.7% | 133% | 6.3% |  |  |  |  |
| CCN(Cc1ccncc1)c1ccc(C(=O)N2CCc3ccc(O)cc3C2)cc1 | 0% | Toxic | 0% | 133% | 0% |  |  |  |  |
| O=C(c1cccc(N(Cc2ccccc2)Cc2ccco2)c1)N1CCc2ccc(O)cc2C1 | 44.9% |  | 63.3% |  | 80.7% |  |  |  |  |
| CCN(Cc1ccc(F)cc1)c1ccc(C(=O)N2CCc3ccc(O)cc3C2)cc1 | 0% | Toxic | 0% | 152% | 4.8% |  |  |  |  |
| O=C(c1ccc(N(Cc2ccccc2)Cc2ccco2)cc1)N1CCc2ccc(O)cc2C1 | 0% | Toxic | 0% | 133% | 7.7% |  |  |  |  |
| O=C(c1cccc(N(CCO)Cc2ccccc2)c1)N1CCc2ccc(O)cc2C1 | 0.5% |  | 3% |  | 12% |  |  |  |  |
| CCCN(CCC)c1ccc(C(=O)N2CCc3ccc(OS(N)(=O)=O)cc3C2)cc1 |  |  |  |  |  | 84.7% | 36.6% | 3.07 |  |
| CN(CCN1CCCCC1)c1cccc(C(=O)N2CCc3ccc(O)cc3C2)c1 | 0% |  | 0% |  | 5.3% |  |  |  |  |
| CCCN(Cc1ccccc1)c1ccc(C(=O)N2CCc3ccc(O)cc3C2)cc1 | 0% |  | 0% |  | 8.9% |  |  |  |  |
| CCN(Cc1cccnc1)c1cccc(C(=O)N2CCc3ccc(O)cc3C2)c1 | 0% |  | 0% |  | 0% |  |  |  |  |
| CN(C)CCN(Cc1ccccc1)c1cccc(C(=O)N2CCc3ccc(O)cc3C2)c1 | 4.1% |  | 7.4% |  | 30.5% |  |  |  |  |
| CCN(Cc1ccccn1)c1ccc(C(=O)N2CCc3ccc(O)cc3C2)cc1 | 2.7% | 140% | 0% | 147% | 84% |  |  |  |  |
| CCN(Cc1ccc(F)cc1)c1cccc(C(=O)N2CCc3ccc(O)cc3C2)c1 | 9.5% |  | 31.9% |  | 101.3% |  |  |  |  |
| CCN(Cc1ccc(Br)cc1)c1ccc(C(=O)N2CCc3ccc(O)cc3C2)cc1 | 0% |  | 10.6% |  | 76.7% |  |  |  |  |
| CC/C(=C(\c1ccccc1)c1ccc(OCCN(C)C)cc1)c1ccccc1 [TAMOXIFEN] |  |  |  | 143% |  |  |  |  |  |
| CCN(Cc1ccncc1)c1cccc(C(=O)N2CCc3ccc(O)cc3C2)c1 | 6% |  | 0% |  | 12.8% |  |  |  |  |
| CN(CCCN1CCCCC1)c1cccc(C(=O)N2CCc3ccc(O)cc3C2)c1 | 2.9% |  | 2.5% |  | 19% |  |  |  |  |
| O=C(c1ccc(N(CCO)Cc2ccccc2)cc1)N1CCc2ccc(O)cc2C1 | 8.4% |  | 14.8% |  | 34.6% |  |  |  |  |
| C[C@]12CC[C@@H]3c4ccc(O)cc4CC[C@H]3[C@@H]1CC[C@@H]2O [ESTRADIOL] |  | 144% |  | 148% |  |  |  |  | 75.6% |
| CN(CCN1CCCCC1)c1ccc(C(=O)N2CCc3ccc(O)cc3C2)cc1 | 2.1% |  | 4.6% |  | 12.2% |  |  |  |  |
| CN(C)CCCN(Cc1ccccc1)c1cccc(C(=O)N2CCc3ccc(O)cc3C2)c1 | 0% |  | 0% |  | 5.4% |  |  |  |  |
| O=C(c1ccc(N(CCCO)Cc2ccccc2)cc1)N1CCc2ccc(O)cc2C1 | 0% |  | 0% |  | 4% |  |  |  |  |
| CCN(Cc1ccc(Br)cc1)c1cccc(C(=O)N2CCc3ccc(O)cc3C2)c1 | 0% |  | 0% |  | 5.5% |  |  |  |  |
| CN(C)CCN(CCN(C)C)c1ccc(C(=O)N2CCc3ccc(O)cc3C2)cc1 | 0% |  | 0% |  | 4.5% |  |  |  |  |
| CN(C)CCN(CCN(C)C)c1cccc(C(=O)N2CCc3ccc(O)cc3C2)c1 | 0% |  | 14.6% |  | 84.1% |  |  |  |  |
| O=C(c1cccc(N(CCCO)Cc2ccccc2)c1)N1CCc2ccc(O)cc2C1 | 0% |  | 14.2% |  | 94.2% |  |  |  |  |
